Among the data in patent US12458021B2, “Microbiocidal derivatives” (SYNGENTA CROP PROTECTION AG, priority 2019, dated 2025) are inhibition and pest or weed control values, retold here.

Assay [1] relates to Glomerella lagenarium (Colletotrichum lagenarium). Description: Glomerella lagenarium (Colletotrichum lagenarium) / liquid culture (anthracnose). It is filed as cell-based. As to conditions: Colletotrichum orbiculare, PDB potato dextrose broth, 24° C., 3-4 days after application, read-out: control of Glomerella lagenarium (inhibition of growth, photometric). A digest of the protocol: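 Conidia from cryogenic storage suspended in potato dextrose broth and added to DMSO compound solution in plates. Incubated at 24° C; growth inhibition read photometrically 3-4 days after application.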

Assay [2] has as its system Monographella nivalis (Microdochium nivale). Nature of the assay: Monographella nivalis (Microdochium nivale) / liquid culture (foot rot cereals). As to conditions: PDB potato dextrose broth, 24° C., 4-5 days after application, read-out: control of Monographella nivalis (inhibition of growth, photometric). It counts as cell-based. The procedure, abridged:
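Cryostored M. nivalis conidia mixed into potato dextrose broth and added to 96-well plates holding test compound in DMSO. Incubated at 24° C; growth inhibition read photometrically 4-5 days after application.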

Assay [3] deals with Puccinia recondita f. sp. tritici. Description: Puccinia recondita f. sp. tritici / wheat / leaf disc preventative (brown rust). As to conditions: foliar, wheat leaf segments cv. Kanzler, inoculated 1 day after application, assessed 7-9 days after application, read-out: control of Puccinia recondita f. sp. tritici, preventative (percent disease control compared to untreated). It counts as in vivo. The protocol: Example B11: Puccinia recondita f. sp. tritici/Wheat/Leaf Disc Preventative (Brown Rust) Wheat leaf segments cv. Kanzler are placed on agar in multiwell plates (24-well format) and sprayed with the formulated test compound diluted in water. The leaf disks are inoculated with a spore suspension of the fungus 1 day after application. The inoculated leaf segments are incubated at 19° C. and 75% rh under a light regime of 12 h light/12 h darkness in a climate cabinet and the activity of a compound is assessed as percent disease control compared to untreated when an appropriate level of disease damage appears in untreated check leaf segments (7-9 days after application). […] […]-190.

For assay [4], the system named is Mycosphaerella graminicola (Septoria tritici). Nature of the assay: Mycosphaerella graminicola (Septoria tritici) / liquid culture (Septoria blotch). It is filed as cell-based. As to conditions: Zymoseptoria tritici, PDB potato dextrose broth, 24° C., 4-5 days after application, read-out: control of Mycosphaerella graminicola (inhibition of growth, photometric). The procedure, abridged: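 Conidia from cryogenic storage were mixed into potato dextrose broth and added to test compound in DMSO. Plates were incubated at 24° C, and growth inhibition was read photometrically 4-5 days after application.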

For assay [5], the system named is Blumeria graminis f. sp. tritici (Erysiphe graminis f. sp. tritici). Nature of the assay: Blumeria graminis f. sp. tritici / wheat / leaf disc preventative (powdery mildew on wheat). It counts as in vivo. As to conditions: foliar, wheat leaf segments cv. Kanzler, inoculated 1 day after application, assessed 6-8 days after application, read-out: control of Blumeria graminis f. sp. tritici (percent disease control compared to untreated). The text has this:
Example B4: Blumeria graminis f. sp. tritici (Erysiphe graminis f. sp. tritici)/Wheat/Leaf Disc Preventative (Powdery Mildew on Wheat) Wheat leaf segments cv. Kanzler are placed on agar in a multiwell plate (24-well format) and sprayed with the formulated test compound diluted in water. The leaf disks are inoculated by shaking powdery mildew infected plants above the test plates 1 day after application. […] […]-192.

For assay [6], the system named is Magnaporthe grisea (Pyricularia oryzae). Description: whole plant or invertebrate. It is filed as in vivo. As to conditions: foliar, read-out: control of Magnaporthe grisea (percent disease control compared to untreated).

Molecules are shown by their SMILES.

For `CC1(C)CCC1NC(=O)c1nc(Nc2cc(F)nc(F)c2)ccc1O` (stereo not shown) [Compound P-1, 6-[(2,6-difluoro-4-pyridyl)amino]-N-(2,2-dimethylcyclobutyl)-3-hydroxy-pyridine-2-carboxamide], the inhibition at 20 ppm in assay [1], in assay [2] and in assay [4] was no less than 80% throughout. Besides, in assay [3], the pest or weed control at 200 ppm is no less than 80%.
In the case of `COc1ccc(N(C#N)c2cc(F)cc(F)c2)nc1C(=O)NC1CCC1(C)C` (stereo not shown) [Compound P-20, 6-(N-cyano-3,5-difluoro-anilino)-N-(2,2-dimethylcyclobutyl)-3-methoxy-pyridine-2-carboxamide], the inhibition at 20 ppm in assay [1] and in assay [4] was no less than 80% throughout. In addition, the pest or weed control at 200 ppm in assay [5] and in assay [6] was no less than 80% throughout.
Take `COc1ccc(Nc2cc(F)nc(F)c2)nc1C(=O)NCCc1ccccc1` [Compound P-31, 6-[(2,6-difluoro-4-pyridyl)amino]-3-methoxy-N-(2-phenylethyl)pyridine-2-carboxamide]: the pest or weed control at 200 ppm in assay [3] is no less than 80%.
For the compound `COc1ccc(Nc2cnsc2)nc1C(=O)NCc1cnc(C(F)(F)F)nc1` [Compound P-80, 6-(isothiazol-4-ylamino)-3-methoxy-N-[[2-(trifluoromethyl)pyrimidin-5-yl]methyl]pyridine-2-carboxamide], the pest or weed control at 200 ppm in assay [3] was no less than 80%.
For the compound `COc1ccc(Nc2cc(F)nc(F)c2)nc1C(=O)NC1(C)CC1` [Compound P-92, 6-[(2,6-difluoro-4-pyridyl)amino]-3-methoxy-N-(1-methylcyclopropyl)pyridine-2-carboxamide], the pest or weed control at 200 ppm in assay [5] and in assay [3] was no less than 80% each time.
Take `CCOc1ccc(Nc2cc(F)nc(F)c2)nc1C(=O)NC(C)(C)C` [Compound P-95, N-tert-butyl-6-[(2,6-difluoro-4-pyridyl)amino]-3-ethoxy-pyridine-2-carboxamide]: the inhibition at 20 ppm in assay [1] and in assay [2] was no less than 80% throughout. For the same compound, the pest or weed control at 200 ppm in assay [5] and in assay [6] was no less than 80% in each case.
Take `COc1ccc(Nc2cncc(F)c2)nc1C(=O)NC1CCC1(C)C` (stereo not shown) [Compound P-104, N-(2,2-dimethylcyclobutyl)-6-[(5-fluoro-3-pyridyl)amino]-3-methoxy-pyridine-2-carboxamide]: the inhibition at 20 ppm in assay [1], in assay [2] and in assay [4] was no less than 80% throughout. Also, the pest or weed control at 200 ppm in assay [5] and in assay [6] was no less than 80% each time.
As for `CC(C)(C)CNC(=O)c1cccc(Nc2cc(F)nc(F)c2)n1` [Compound P-113, 6-[(2,6-difluoro-4-pyridyl)amino]-N-(2,2-dimethylpropyl)pyridine-2-carboxamide], the inhibition at 20 ppm in assay [1], in assay [2] and in assay [4] was no less than 80% throughout. For the same compound, the pest or weed control at 200 ppm in assay [5] and in assay [6] was no less than 80% throughout.
With `CC(C)(C)NC(=O)c1cccc(Nc2cc(F)nc(F)c2)n1` [Compound P-114, N-tert-butyl-6-[(2,6-difluoro-4-pyridyl)amino]pyridine-2-carboxamide], the inhibition at 20 ppm in assay [1], in assay [2] and in assay [4] was no less than 80% throughout. Also, the pest or weed control at 200 ppm in assay [5] and in assay [3] was no less than 80% throughout.
Turning to `COc1ccc(Nc2cc(F)cc(F)c2)nc1C(=O)NC1(C)COC1` [Compound P-128, 6-(3,5-difluoroanilino)-3-methoxy-N-(3-methyloxetan-3-yl)pyridine-2-carboxamide], the inhibition at 20 ppm in assay [1] and in assay [4] was no less than 80% in each case. Moreover, the pest or weed control at 200 ppm in assay [5] and in assay [6] was no less than 80% in each case.
Consider `COc1ccc(Nc2ccnc(F)c2)nc1C(=O)NCC(C)(C)C` [Compound P-136, N-(2,2-dimethylpropyl)-6-[(2-fluoro-4-pyridyl)amino]-3-methoxy-pyridine-2-carboxamide], for which the inhibition at 20 ppm in assay [1] is no less than 80%. For the same compound, the pest or weed control at 200 ppm in assay [3] is no less than 80%.
As to `CCc1cccc(Nc2ccc(OC)c(C(=O)NCC(C)(C)C)n2)c1` [Compound P-137, N-(2,2-dimethylpropyl)-6-(3-ethylanilino)-3-methoxy-pyridine-2-carboxamide], the inhibition at 20 ppm in assay [1] is no less than 80%. For the same compound, the pest or weed control at 200 ppm in assay [3] was no less than 80%.
As for `COc1ccc(Nc2cc(C)cc(C#N)c2)nc1C(=O)NCC(C)(C)C` [Compound P-143, 6-(3-cyano-5-methyl-anilino)-N-(2,2-dimethylpropyl)-3-methoxy-pyridine-2-carboxamide], the pest or weed control at 200 ppm in assay [3] was no less than 80%.
Consider `COc1ccc(Nc2cc(F)c(Cl)c(F)c2)nc1C(=O)NC(C)(C)C` [Compound P-153, N-tert-butyl-6-(4-chloro-3,5-difluoro-anilino)-3-methoxy-pyridine-2-carboxamide], for which the inhibition at 20 ppm in assay [1], in assay [2] and in assay [4] was no less than 80% each time. Besides, the pest or weed control at 200 ppm in assay [5] and in assay [6] was no less than 80% in each case.
On to `COc1ccc(Nc2cc(F)nc(F)c2)nc1C(=O)NC(C)C(C)C` (stereo not shown) [Compound P-167, 6-[(2,6-difluoro-4-pyridyl)amino]-N-(1,2-dimethylpropyl)-3-methoxy-pyridine-2-carboxamide], for which the pest or weed control at 200 ppm in assay [5] and in assay [3] was no less than 80% in each case.
With `COc1ccc(Nc2cc(F)nc(F)c2)nc1C(=O)NC(C)C(C)(C)C` (stereo not shown) [Compound P-169, 6-[(2,6-difluoro-4-pyridyl)amino]-3-methoxy-N-(1,2,2-trimethylpropyl)pyridine-2-carboxamide], the pest or weed control at 200 ppm in assay [5] and in assay [3] was no less than 80% each time.
Consider `COc1ccc(Nc2cc(F)nc(F)c2)nc1C(=O)NC(C)(C)C(C)(C)C` [Compound P-174, 6-[(2,6-difluoro-4-pyridyl)amino]-3-methoxy-N-(1,1,2,2-tetramethylpropyl)pyridine-2-carboxamide], for which the pest or weed control at 200 ppm in assay [3] was no less than 80%. Moreover, the inhibition at 20 ppm in assay [4] is no less than 80%.
As for `COc1ccc(Nc2cc(F)nc(F)c2)nc1C(=O)NC1(C(C)C)CCC1` [Compound P-181, 6-[(2,6-difluoro-4-pyridyl)amino]-N-(1-isopropylcyclobutyl)-3-methoxy-pyridine-2-carboxamide], the pest or weed control at 200 ppm in assay [5] and in assay [3] was no less than 80% each time. The inhibition at 20 ppm in assay [2] and in assay [4] was no less than 80% throughout.
As to `COc1ccc(Nc2cc(F)nc(F)c2)nc1C(=O)NC1(C2CCC2)CCC1` [Compound P-182, N-(1-cyclobutylcyclobutyl)-6-[(2,6-difluoro-4-pyridyl)amino]-3-methoxy-pyridine-2-carboxamide], the pest or weed control at 200 ppm in assay [5] and in assay [3] was no less than 80% in each case.
On to `CCC1(NC(=O)c2nc(Nc3cc(F)nc(F)c3)ccc2OC)CCC1` [Compound P-183, 6-[(2,6-difluoro-4-pyridyl)amino]-N-(1-ethylcyclobutyl)-3-methoxy-pyridine-2-carboxamide], for which the pest or weed control at 200 ppm in assay [5] and in assay [3] was no less than 80% each time. For the same compound, the inhibition at 20 ppm in assay [2] and in assay [4] was no less than 80% each time.
For `COc1ccc(Nc2cc(F)nc(F)c2)nc1C(=O)NC1(c2cccc(Cl)n2)CCC1` [Compound P-184, N-[1-(6-chloro-2-pyridyl)cyclobutyl]-6-[(2,6-difluoro-4-pyridyl)amino]-3-methoxy-pyridine-2-carboxamide], the pest or weed control at 200 ppm in assay [3] is no less than 80%.
As to `COc1ccc(Nc2cc(F)cc(F)c2)nc1C(=O)NC1CC(c2ccc(Cl)cc2)C1` (stereo not shown) [Compound P-187, N-[3-(4-chlorophenyl)cyclobutyl]-6-(3,5-difluoroanilino)-3-methoxy-pyridine-2-carboxamide], the inhibition at 20 ppm in assay [1], in assay [2] and in assay [4] was no less than 80% throughout. Also, the pest or weed control at 200 ppm in assay [3] was no less than 80%.
In the case of `COc1ccc(Nc2cc(F)nc(F)c2)nc1C(=O)NC1CC(c2ccc(Cl)cc2)C1` (stereo not shown) [Compound P-188], the pest or weed control at 200 ppm in assay [3] is no less than 80%.
